Measured values from patent publication US7008953B2, “3, 5 Disubstituted indazole compounds, pharmaceutical compositions, and methods for mediating or inhibiting cell proliferation” (Agouron Pharmaceuticals, Inc., priority 2003, dated 2006).

How the values were obtained:
Assay type in all cases: biochemical
[1] = target: protein kinase C (PKCa) (Homo sapiens, UniProt P17252); assay: Panel of protein kinases: PKCa; conditions: method of Davies et al.
Method: (§1) The compounds of the present invention were screened against a large panel of protein kinase to determine inhibition activity for CDK as against a variety of protein kinases. The assay was conducted using methods and materials described by Davies, S et al. Specificity and Mechanism of Action of Some Commonly Used Protein Kinase Inhibitors, Biochem J. 351, 95–105 (2000), the contents of which are herein incorporated by reference. The compounds were screened against a panel of protein kinases which include AMP-activiated protein kinase (AMPK), checkpoint kinase (CHK1), casein kinases 1 and 2 (CK1 and CK2), cytoplasmic tyrosine kinase (CSK), dual serine/threonine/tyrosine kinase (DYRK1A), glycogen synthase kinase 3 (GSK3B), c-Jun N-terminal kinase (JNK), lymphocyte kinase (LCK), mitogen-activated protein kinases 2, K-1a, K2 (MAPK2, MAPKAP-K1a, and MAPKAP-K2), MAPK kinase (MKK1, also called MEK), mitogen and stress-activated protein kinase 1 (MSK1), never-in-mitosis kinase 6 (NEK6), p70 ribosomal protein S6 kinase (P70s6K1), 3-phosphoinositide-dependent protein kinase 1 (PDK1), phosphorylase kinase (PHK), protein kinase A (PKA), protein kinase B (PKB, also called Akt), protein kinase C (PKCa), p38-regulated/activated kinase (PRAK), Rho-dependent protein kinase (ROCK-II), stress-activated protein kinase 2a, 2b, 3 and 4 (SAPK-2A or p38, SAPK-2b or p38β2, SAPK3 or p38γ, SAPK4 or p38δ, respectively), and serum- and glucocorticoid-induced kinase (SGK). Compound activity was grouped into categories of weak (<50%), moderate (50–75%) and strong inhibition (>75%).

[2] = target: glycogen synthase kinase 3 (GSK3B) (Homo sapiens, UniProt P49841); assay: Panel of protein kinases: GSK3B; conditions: method of Davies et al.
Sequence of glycogen synthase kinase 3 (GSK3B) (P49841 whole entry, species assumed): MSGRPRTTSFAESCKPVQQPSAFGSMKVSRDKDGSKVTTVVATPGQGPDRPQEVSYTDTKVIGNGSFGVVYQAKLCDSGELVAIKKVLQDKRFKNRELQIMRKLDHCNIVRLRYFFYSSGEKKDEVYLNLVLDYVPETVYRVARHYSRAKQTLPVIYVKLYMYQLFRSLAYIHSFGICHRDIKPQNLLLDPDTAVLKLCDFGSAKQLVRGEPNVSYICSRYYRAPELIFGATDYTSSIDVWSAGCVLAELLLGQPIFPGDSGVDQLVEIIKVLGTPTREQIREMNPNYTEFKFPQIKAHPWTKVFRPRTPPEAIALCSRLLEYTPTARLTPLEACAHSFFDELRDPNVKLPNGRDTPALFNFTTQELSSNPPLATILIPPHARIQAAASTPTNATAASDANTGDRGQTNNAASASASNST
Method: as §1

[3] = target: CDK2/A (Homo sapiens, UniProt P24941); assay: Panel of protein kinases: CDK2/A; conditions: method of Davies et al.
Method: as §1

[4] = target: lymphocyte kinase (LCK) (Homo sapiens, UniProt P06239); assay: Panel of protein kinases: LCK; conditions: method of Davies et al.
Sequence of lymphocyte kinase (LCK) (P06239 whole entry, species assumed): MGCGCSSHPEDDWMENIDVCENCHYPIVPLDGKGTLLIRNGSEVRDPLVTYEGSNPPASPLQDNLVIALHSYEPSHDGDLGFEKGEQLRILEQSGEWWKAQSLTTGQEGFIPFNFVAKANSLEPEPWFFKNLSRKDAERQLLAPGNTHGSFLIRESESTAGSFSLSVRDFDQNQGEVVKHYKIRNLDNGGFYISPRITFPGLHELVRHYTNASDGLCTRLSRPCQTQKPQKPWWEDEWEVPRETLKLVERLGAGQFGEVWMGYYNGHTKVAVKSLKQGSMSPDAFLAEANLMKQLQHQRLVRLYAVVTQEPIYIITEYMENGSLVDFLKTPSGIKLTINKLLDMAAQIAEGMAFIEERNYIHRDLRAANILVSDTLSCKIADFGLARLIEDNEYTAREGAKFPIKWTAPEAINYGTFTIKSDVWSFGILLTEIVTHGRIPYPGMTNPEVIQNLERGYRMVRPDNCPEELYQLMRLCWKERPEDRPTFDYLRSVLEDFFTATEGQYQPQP
Method: as §1

[5] = target: mitogen and stress-activated protein kinase 1 (MSK1) (Homo sapiens, UniProt O75582); assay: Panel of protein kinases: MSK1; conditions: method of Davies et al.
Sequence of mitogen and stress-activated protein kinase 1 (MSK1) (O75582 whole entry, species assumed): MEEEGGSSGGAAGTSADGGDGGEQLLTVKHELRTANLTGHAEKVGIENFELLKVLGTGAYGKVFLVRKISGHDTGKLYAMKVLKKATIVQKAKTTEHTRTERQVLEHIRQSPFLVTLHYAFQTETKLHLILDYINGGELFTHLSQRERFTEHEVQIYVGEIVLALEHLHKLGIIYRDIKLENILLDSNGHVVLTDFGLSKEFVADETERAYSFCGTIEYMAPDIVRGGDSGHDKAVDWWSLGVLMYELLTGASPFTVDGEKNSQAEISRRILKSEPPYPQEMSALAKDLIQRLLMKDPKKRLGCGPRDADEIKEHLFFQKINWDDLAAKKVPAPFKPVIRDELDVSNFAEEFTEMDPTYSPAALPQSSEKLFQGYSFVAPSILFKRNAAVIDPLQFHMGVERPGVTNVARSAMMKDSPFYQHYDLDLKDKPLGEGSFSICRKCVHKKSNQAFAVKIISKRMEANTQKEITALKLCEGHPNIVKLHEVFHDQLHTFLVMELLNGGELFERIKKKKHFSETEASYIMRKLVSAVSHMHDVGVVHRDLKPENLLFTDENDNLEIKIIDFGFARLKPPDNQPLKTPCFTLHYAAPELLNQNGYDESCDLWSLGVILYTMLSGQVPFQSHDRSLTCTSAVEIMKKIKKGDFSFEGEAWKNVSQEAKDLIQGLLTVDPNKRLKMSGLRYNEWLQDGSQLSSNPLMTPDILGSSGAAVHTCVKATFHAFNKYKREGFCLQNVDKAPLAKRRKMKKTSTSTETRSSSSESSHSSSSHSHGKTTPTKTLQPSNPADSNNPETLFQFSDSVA
Method: as §1

[6] = target: T1, CDK2/Cyclin A (Homo sapiens, UniProt P24941); assay: Inhibition of CDK2/Cyclin A retinoblastoma kinase activity (apparent Ki); conditions: Rb fragment substrate, 25 μM ATP
T1 construct: made in house; host or cells: CDK2: insect cells (baculovirus); cyclin A: E. coli
Method: Cyclin-dependent kinase activity was measured by quantifying the enzyme-catalyzed, time-dependent incorporation of radioactive phosphate from [^32P]ATP or [^33P]ATP into a protein substrate. Unless noted otherwise, assays were performed in 96-well plates in a total volume of 50 μL, in the presence of 10 mM HEPES (N-[2-hydroxyethyl]piperazine-N′-[2-ethanesulfonic acid]) (pH 7.4), 10 mM MgCl2, 25 μM adenosine triphosphate (ATP), 1 mg/mL ovalbumin, 5 μg/mL leupeptin, 1 mM dithiothreitol, 10 mM beta-glycerophosphate, 0.1 mM sodium vanadate, 1 mM sodium fluoride, 2.5 mM ethylene glycol-bis(β-aminoethyl ethKer)-N,N,N′N′-tetraacetic acid (EGTA), 2% (v/v) dimethylsulfoxide, and 0.03–0.4 μCi [^32/33P]ATP per reaction. Reactions were initiated with enzyme, incubated at 30° C., and terminated after 20 minutes by the addition of ethylenediaminetetraacetic acid (EDTA) to 250 mM. The phosphorylated substrate was then captured on a nitrocellulose or phosphocellulose membrane using a 96-well filtration manifold, and unincorporated radioactivity was removed by repeated washing with 0.85% phosphoric acid. Radioactivity was quantified by exposing the dried membranes to a phosphorimager.
Apparent Ki values were measured by assaying enzyme activity in the presence of different inhibitor compound concentrations and subtracting the background radioactivity measured in the absence of enzyme. Inhibition data were fit to an equation for competitive inhibition using Kaleidagraph (Synergy Software), or were fit to an equation for competitive tight-binding inhibition using the software KineTic (BioKin, Ltd.).
CDK2 was purified using published methodology (Rosenblatt et al., “Purification and Crystallization of Human Cyclin-dependent Kinase 2,” J. Mol. Biol., vol. 230, 1993, pp. 1317–1319) from insect cells that had been infected with a baculovirus expression vector. […] A complex of CDK2 and proteolyzed cyclin A was prepared and purified by gel filtration. The substrate for this assay was the same Rb substrate fragment used for the CDK4 assays, and the methodology of the CDK2/cyclin A and the CDK4/cyclin D3 assays was essentially the same, except that CDK2 was present at 150 nM or 5 nM. Ki values were measured as described above.

[7] = target: MAPKAP-K2 (Homo sapiens, UniProt P49137); assay: Panel of protein kinases: MAPKAP-K2; conditions: method of Davies et al.
Sequence of MAPKAP-K2 (P49137 whole entry, species assumed): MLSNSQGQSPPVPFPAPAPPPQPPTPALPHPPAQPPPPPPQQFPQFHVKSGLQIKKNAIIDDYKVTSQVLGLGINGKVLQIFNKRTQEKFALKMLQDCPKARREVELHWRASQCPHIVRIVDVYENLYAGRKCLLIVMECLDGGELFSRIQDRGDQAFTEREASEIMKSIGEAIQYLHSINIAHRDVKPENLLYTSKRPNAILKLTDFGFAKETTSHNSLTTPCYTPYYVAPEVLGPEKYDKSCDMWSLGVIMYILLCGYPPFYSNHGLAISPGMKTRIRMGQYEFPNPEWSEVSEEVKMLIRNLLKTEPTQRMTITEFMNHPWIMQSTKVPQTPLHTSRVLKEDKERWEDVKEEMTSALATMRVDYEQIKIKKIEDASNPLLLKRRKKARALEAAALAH
Method: as §1

[8] = target: T2, stress-activated protein kinase 4 (SAPK4 or p38δ) (Homo sapiens, UniProt O15264); assay: Panel of protein kinases: SAPK4; conditions: method of Davies et al.
T2 sequence (O15264 1-365): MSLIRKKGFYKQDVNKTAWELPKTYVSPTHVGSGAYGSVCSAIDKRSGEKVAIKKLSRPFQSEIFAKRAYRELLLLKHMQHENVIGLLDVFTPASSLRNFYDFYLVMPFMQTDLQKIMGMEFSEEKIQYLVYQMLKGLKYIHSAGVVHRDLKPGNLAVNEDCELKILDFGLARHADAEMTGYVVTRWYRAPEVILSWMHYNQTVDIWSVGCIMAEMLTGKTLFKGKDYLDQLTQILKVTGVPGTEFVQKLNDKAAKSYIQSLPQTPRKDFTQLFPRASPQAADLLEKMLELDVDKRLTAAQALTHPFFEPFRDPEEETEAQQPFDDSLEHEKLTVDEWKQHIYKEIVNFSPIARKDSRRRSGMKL
Method: as §1

[9] = target: MAPKAP-K1a (Homo sapiens, UniProt Q15418); assay: Panel of protein kinases: MAPKAP-K1a; conditions: method of Davies et al.
Sequence of MAPKAP-K1a (Q15418 whole entry, species assumed): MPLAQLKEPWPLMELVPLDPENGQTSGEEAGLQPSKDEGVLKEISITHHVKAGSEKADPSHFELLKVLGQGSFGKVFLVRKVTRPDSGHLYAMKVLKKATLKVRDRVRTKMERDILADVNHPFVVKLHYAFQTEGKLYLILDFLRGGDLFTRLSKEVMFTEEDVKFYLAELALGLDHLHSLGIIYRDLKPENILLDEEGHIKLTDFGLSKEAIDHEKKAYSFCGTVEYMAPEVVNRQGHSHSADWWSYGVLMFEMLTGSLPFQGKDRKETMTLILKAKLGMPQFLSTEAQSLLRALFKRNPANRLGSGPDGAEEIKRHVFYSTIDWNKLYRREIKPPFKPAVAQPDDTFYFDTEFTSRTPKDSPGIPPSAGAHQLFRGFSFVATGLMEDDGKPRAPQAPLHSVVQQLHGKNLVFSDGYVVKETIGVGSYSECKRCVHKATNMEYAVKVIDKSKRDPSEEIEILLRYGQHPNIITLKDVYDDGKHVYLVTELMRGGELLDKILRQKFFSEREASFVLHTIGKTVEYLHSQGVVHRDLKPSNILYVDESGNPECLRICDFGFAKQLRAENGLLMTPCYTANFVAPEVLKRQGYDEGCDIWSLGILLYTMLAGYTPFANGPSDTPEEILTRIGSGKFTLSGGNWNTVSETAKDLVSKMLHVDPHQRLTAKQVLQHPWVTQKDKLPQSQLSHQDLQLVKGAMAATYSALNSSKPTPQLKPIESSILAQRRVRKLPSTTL
Method: as §1

[10] = target: c-Jun N-terminal kinase (JNK) (Homo sapiens, UniProt P45983); assay: Panel of protein kinases: JNK; conditions: method of Davies et al.
Sequence of c-Jun N-terminal kinase (JNK) (P45983 whole entry): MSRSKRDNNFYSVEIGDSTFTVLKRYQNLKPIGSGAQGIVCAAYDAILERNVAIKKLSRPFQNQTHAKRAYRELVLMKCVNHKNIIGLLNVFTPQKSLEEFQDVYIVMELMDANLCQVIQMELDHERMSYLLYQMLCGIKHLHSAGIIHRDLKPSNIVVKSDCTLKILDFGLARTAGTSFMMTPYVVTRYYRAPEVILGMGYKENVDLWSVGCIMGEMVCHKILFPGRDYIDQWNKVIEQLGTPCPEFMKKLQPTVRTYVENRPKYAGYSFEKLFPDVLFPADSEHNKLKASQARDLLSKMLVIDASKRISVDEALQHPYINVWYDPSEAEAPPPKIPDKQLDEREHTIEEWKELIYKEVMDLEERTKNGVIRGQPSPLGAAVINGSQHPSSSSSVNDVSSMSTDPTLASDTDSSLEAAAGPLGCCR
Method: as §1

[11] = target: stress-activated protein kinase 2a (SAPK-2A or p38) (Homo sapiens, UniProt Q16539); assay: Panel of protein kinases: SAPK-2A; conditions: method of Davies et al.
Sequence of stress-activated protein kinase 2a (SAPK-2A or p38) (Q16539 whole entry, species assumed): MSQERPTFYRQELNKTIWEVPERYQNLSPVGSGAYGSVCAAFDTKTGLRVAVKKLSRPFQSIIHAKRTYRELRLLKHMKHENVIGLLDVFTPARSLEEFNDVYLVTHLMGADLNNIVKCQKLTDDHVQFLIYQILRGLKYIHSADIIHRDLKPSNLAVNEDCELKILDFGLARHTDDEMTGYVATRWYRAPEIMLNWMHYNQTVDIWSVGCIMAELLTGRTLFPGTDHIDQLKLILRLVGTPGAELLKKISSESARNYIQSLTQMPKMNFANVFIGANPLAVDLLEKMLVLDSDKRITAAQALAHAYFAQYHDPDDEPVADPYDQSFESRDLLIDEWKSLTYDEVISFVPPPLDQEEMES
Method: as §1

[12] = target: protein kinase A (PKA) (Bos taurus, UniProt P00517); assay: Panel of protein kinases: PKA; conditions: method of Davies et al.
Method: as §1

Row | SMILES | Kinase PKCa inhibition [1] | Kinase GSK3B inhibition [2] | Kinase CDK2/A inhibition [3] | Kinase LCK inhibition [4] | Kinase MSK1 inhibition [5] | Ki [6] | Kinase MAPKAP-K2 inhibition [7] | Kinase SAPK4 inhibition [8] | Kinase MAPKAP-K1a inhibition [9] | Kinase JNK inhibition [10] | Kinase SAPK-2A inhibition [11] | Kinase PKA inhibition [12]
1 | CCNCc1cncc(-c2ccc3[nH]nc(-c4nc5c(NC(C)=O)cccc5[nH]4)c3c2)c1C [D] | − (Weak inhibition <50%) | ++ (Strong inhibition >75%) | ++ (Strong inhibition >75%) | − (Weak inhibition <50%) | − (Weak inhibition <50%) | 2.4 nM | − (Weak inhibition <50%) | − (Weak inhibition <50%) | + (Moderate inhibition 50–75%) | − (Weak inhibition <50%) | − (Weak inhibition <50%) | − (Weak inhibition <50%)
2 | CCNCc1cncc(-c2ccc3[nH]nc(-c4nc5c(SC)cccc5[nH]4)c3c2)c1C [C] | + (Moderate inhibition 50–75%) | ++ (Strong inhibition >75%) | ++ (Strong inhibition >75%) | + (Moderate inhibition 50–75%) | − (Weak inhibition <50%) | 0.8 nM | − (Weak inhibition <50%) | − (Weak inhibition <50%) | ++ (Strong inhibition >75%) | − (Weak inhibition <50%) | − (Weak inhibition <50%) | + (Moderate inhibition 50–75%)
3 | CCNCc1cncc(-c2ccc3[nH]nc(-c4nc5c(C(=O)NC)cccc5[nH]4)c3c2)c1C [B] | ++ (Strong inhibition >75%) | ++ (Strong inhibition >75%) | ++ (Strong inhibition >75%) | ++ (Strong inhibition >75%) | − (Weak inhibition <50%) | 0.25 nM | − (Weak inhibition <50%) | − (Weak inhibition <50%) | ++ (Strong inhibition >75%) | − (Weak inhibition <50%) | − (Weak inhibition <50%) | ++ (Strong inhibition >75%)
4 | CCNCc1cncc(-c2ccc3[nH]nc(-c4nc5cc(F)ccc5[nH]4)c3c2)c1C [Example 2, Ethyl-{5-[3-(5-fluoro-1H-benzoimidazol-2-yl)-1H-indazol-5-yl]-4-methyl-pyridin-3-ylmethyl}-amine] | − (Weak inhibition <50%) | ++ (Strong inhibition >75%) | ++ (Strong inhibition >75%) | + (Moderate inhibition 50–75%) | − (Weak inhibition <50%) | 0.47 nM | − (Weak inhibition <50%) | − (Weak inhibition <50%) | − (Weak inhibition <50%) | − (Weak inhibition <50%) | − (Weak inhibition <50%) | − (Weak inhibition <50%)
5 | CCNCc1cncc(-c2ccc3[nH]nc(-c4nc5c(F)cc(F)cc5[nH]4)c3c2)c1C [Example 1, {5-[3-(4,6-Difluoro-1H-benzoimidazol-2-yl)-1H-indazol-5-yl]-4-methyl-pyridin-3-ylmethyl}-ethyl-amine] | − (Weak inhibition <50%) | ++ (Strong inhibition >75%) | ++ (Strong inhibition >75%) | + (Moderate inhibition 50–75%) | − (Weak inhibition <50%) | 0.78 nM | − (Weak inhibition <50%) | − (Weak inhibition <50%) | ++ (Strong inhibition >75%) | − (Weak inhibition <50%) | − (Weak inhibition <50%) | − (Weak inhibition <50%)
6 | CCNCc1cncc(-c2ccc3[nH]nc(-c4nc5ccccc5[nH]4)c3c2)c1C [A] | + (Moderate inhibition 50–75%) | ++ (Strong inhibition >75%) | ++ (Strong inhibition >75%) | ++ (Strong inhibition >75%) | − (Weak inhibition <50%) | 0.52 nM | − (Weak inhibition <50%) | − (Weak inhibition <50%) | ++ (Strong inhibition >75%) | − (Weak inhibition <50%) | − (Weak inhibition <50%) | ++ (Strong inhibition >75%)
